Assay results as given in patent publication US7855228B2, “Antibiotics targeting MreB” (The Board of Trustees of the Leland Stamford Junior …, priority 2005, dated 2010).
Values after ≈ are worked out from the molar mass of the structure shown. Read-outs that look alike come from different tables or passages of the source. *1 amine or outer side, *2 acyl side, *3 side chain or, on linkers, in order; H or OH if unused. Where a SMILES comes first, the peptide text is derived from it. Bridges are numbered along the chain shown (N, C = ends). [ ]: non-standard residue; d: D form. Trp(2-yl) = O=C([C@H](Cc1c([*:3])[nH]c2ccccc12)N[*:1])[*:2]; Leu(4R-OH,5-OH) = C[C@](O)(CO)C[C@H](N)C(=O)O; cisHyp = O=C(O)[C@@H]1C[C@H](O)CN1

Experiments:
[1] = tested on: S. aureus subsp. aureus NBRC15035; assay: Determination of minimum inhibitory concentration (MIC); assay type: cell-based, Staphylococcus aureus; settings: for MIC: Staphylococcus aureus; for MIC S. aureus: Example 2
Method: (§1) Determination of minimum inhibitory concentration (MIC). MICs were also determined on Mueller Hinton agar plates (0.2% beef extract, 1.75% acid digest of casein, 0.15% soluble starch, 1.5% agar, pH 7.3).
(§2) Determination of MIC Minimal inhibitory concentrations (MICs) were determined using a standard 2-fold serial dilution format on L agar plates. Ten microliters of stationary culture diluted in 0.85% NaCl to 10^6 cells/ml were spotted on per plate. […] MICs were also determined on Mueller Hinton agar plates (0.2% beef extract, 1.75% acid digest of casein, 0.15% soluble starch, 1.5% agar, pH 7.3).

[2] = tested on: E. coli K-12 strain SH3210; assay: Anucleate cell blue assay; assay type: cell-based
Method: Anucleate cell blue assay. The anucleate cell blue assay was carried out as reported previously. Briefly, E. coli K-12 strain SH3210 (ΔtrpE5 his λ pXX747) was grown in a P medium containing 1% Polypepton and 0.5% NaCl (pH 7). Paper disks (φ 8 mm) each soaked with 20 μl of a sample solution were placed on P medium agar plates (1.5% agar) containing 10^4 cells/ml of SH3210 and 40 μg/ml of 5-bromo-4-chloro-3-indolyl β-D-galactoside. The plates were incubated at 42° C. for 24 h, and the development of a blue color and the growth inhibitory zone around the paper disks were evaluated.
Since 1 had originally been found through screening by an anucleate cell blue assay, the effect of each compound was first examined by this assay.

E. coli MG1655 [3] = assay: Microscopic observation of cell shape; assay type: cell-based; settings: for Effect on E. coli cell morphology (in words): 3×MIC or 300 μg/ml, 16 hrs
Method: Microscopic observation. E. coli K-12 strain MG1655 (F^− λ^−) was grown in Lennox broth containing 1% Polypepton, 0.5% yeast extract, 0.5% NaCl, and 0.1% glucose (pH 7.2). Cells spread on a slide glass were treated with methanol for 5 min and covered with poly-L-lysine. The fixed cells were observed by the differential interference contrast system through an Axioskop 2 microscope (Carl Zeiss Co., Ltd., Oberkochen, Germany). To observe the anucleate cells, cells were stained with a 4′,6-diamidino-2-phenylindole (DAPI) solution (5 μg/ml in saline) and then observed by the fluorescence phase-contrast combined method.
The effect of each compound on E. coli cell morphology was next examined.

E. coli MG1655 [4] = assay: Determination of minimum inhibitory concentration (MIC); assay type: cell-based; settings: for MIC: Escherichia coli; for MIC E. coli: Example 2
Method: as §1, §2

B. subtilis 168 = assay: as above; assay type: cell-based, Bacillus subtilis; settings: for MIC B. subtilis: Example 2
Method: as §1, §2

P. putida NBRC14164 = assay: as above; assay type: cell-based, Pseudomonas putida; settings: for MIC: Pseudomonas putida; for MIC P. putida: Example 2
Method: as §1, §2

S. typhimurium NBRC13245 = assay: as above; assay type: cell-based, Salmonella typhimurium; settings: for MIC: Salmonella enterica, read-out: MIC S. typhimurium
Method: as §1, §2

Caulobacter = Caulobacter morphology (DIC images); assay type: cell-based, Caulobacter crescentus; settings: drugs that affect eukaryotic actin
Text: Consistent with previous observations in E. coli (Iwai et al., 2002), A22 caused a dose-dependent alteration of Caulobacter morphology, transforming normal, crescent-shaped cells into rounded, lemon-shaped cells. The progression of cell shape deformation by A22 treatment was qualitatively similar to that caused by mreB depletion, though the A22 effect was more rapid (FIGS. […]). […] For example, A22 could disrupt the localization of new cell wall synthesis but have no effect on the existing cell wall, such that without additional growth and wall synthesis A22's effects cannot be perceived. A dependence on cell growth could also explain why A22's effect on morphology takes several hours to manifest.
Microscopy and Timelapse Imaging. All experiments other than the A22 flow-cell analysis were performed by mounting the samples on 1% agarose pads as described, with the appropriate concentration of A22 added to the agarose. The rates of origin-distal locus segregation were determined by inducing PxyI:lacI:cfp expression with 0.03% xylose for 75 min, isolating swarmer cells, and growing the swarmer cells in M2G liquid medium for 50 min. After 50 min, 10 μg/ml of A22 was added to these liquid cultures, they were mounted onto 1% M2G agarose pads containing 10 μg/ml A22, and a phase and CFP fluorescence image was captured every 2 min for 60 min. The images were analyzed by previously described software to determine the average position and rate of movement of the observed foci.

[5] = NBRC15035, Example 2, methods as in Example 1, read-out: MIC S. aureus
[6] = NBRC15035, Table 1, NBRC15035, read-out: MIC S. aureus
[7] = E. coli MG1655 treated at 300 μg/ml (**), 30° C., 16 h
[8] = Example 2, methods as in Example 1
[9] = MG1655, Example 2, methods as in Example 1, read-out: MIC E. coli
[10] = MG1655, Table 1, E. coli MG1655, read-out: MIC E. coli
[11] = Bacillus subtilis, 168, Example 2, methods as in Example 1, read-out: MIC B. subtilis
[12] = Bacillus subtilis, 168, Table 1, B. subtilis 168, read-out: MIC B. subtilis
[13] = NBRC14164, Example 2, methods as in Example 1, read-out: MIC P. putida
[14] = NBRC14164, Table 1, NBRC14164, read-out: MIC P. putida
[15] = NBRC15035, read-out: MIC S. aureus
[16] = Bacillus subtilis, 168, read-out: MIC B. subtilis
[17] = NBRC14164, read-out: MIC P. putida

| Compound | Growth inhibitory zone and blue zone in the anucleate cell blue assay (in words) [2] | Shape (E. coli MG1655 [3]; [7]) | Shape (E. coli MG1655 [3]; [8]) | MIC S. aureus ([1]; methods as in Example 1) [µg/mL] | MIC [1, 15] [µg/mL] | MIC (E. coli MG1655 [4]; MG1655, read-out: MIC E. coli) [µg/mL] | MIC E. coli (E. coli MG1655 [4]; methods as in Example 1) [µg/mL] | MIC (B. subtilis 168; [16]) [µg/mL] | MIC B. subtilis (B. subtilis 168; methods as in Example 1) [µg/mL] | MIC P. putida (P. putida NBRC14164; methods as in Example 1) [µg/mL] | MIC (P. putida NBRC14164; [17]) [µg/mL] | MIC S. typhimurium (S. typhimurium NBRC13245; [8]) [µg/mL] | MIC (S. typhimurium NBRC13245) [µg/mL] | Caulobacter growth rate or morphology (Caulobacter) | further results |
| --- | --- | --- | --- | --- | --- | --- | --- | --- | --- | --- | --- | --- | --- | --- | --- |
| N=C(N)SCC1CCCCC1 [Compound 4] | neither a growth inhibitory zone nor blue zone | Rod** | Short Rod | – | – | – | – | – | – | – | – | – | – | – | MIC [1, 5]: > 200 µg/mL; MIC [1, 6]: > 100 µg/mL; Effect on E. coli cell morphology (in words) (E. coli MG1655 [3]; 30° C.): shorter than corresponding untreated cells, but spherical cells were not induced; MIC (E. coli MG1655 [4]; [9]): > 200 µg/mL; MIC (E. coli MG1655 [4]; [10]): > 100 µg/mL; MIC (B. subtilis 168; [11]): > 200 µg/mL; MIC (B. subtilis 168; [12]): > 100 µg/mL; MIC (P. putida NBRC14164; [13]): > 200 µg/mL; MIC (P. putida NBRC14164; [14]): > 100 µg/mL; MIC (S. typhimurium NBRC13245; [8]): > 200 µg/mL; MIC (S. typhimurium NBRC13245; Table 1, NBRC13245): > 100 µg/mL |
| CCCCCCCSC(=N)N [Compound 5, S-heptylisothiourea] | a growth inhibitory zone as well as a blue zone | Rod** | Rod | – | – | – | – | – | – | – | – | – | – | – | MIC [1, 5]: > 200 µg/mL; MIC [1, 6]: > 100 µg/mL; Effect on E. coli cell morphology (in words) (E. coli MG1655 [3]; 30° C.): somewhat elongated cells, but not spherical cells; MIC (E. coli MG1655 [4]; [9]): 200 µg/mL (≈ 1150 µM); MIC (E. coli MG1655 [4]; [10]): > 100 µg/mL; MIC (B. subtilis 168; [11]): > 200 µg/mL; MIC (B. subtilis 168; [12]): > 100 µg/mL; MIC (P. putida NBRC14164; [13]): 200 µg/mL (≈ 1150 µM); MIC (P. putida NBRC14164; [14]): > 100 µg/mL; MIC (S. typhimurium NBRC13245; [8]): > 200 µg/mL; MIC (S. typhimurium NBRC13245; Table 1, NBRC13245): > 100 µg/mL |
| CCSC(=N)N [Compound 6, S-ethylisothiourea] | neither a growth inhibitory zone nor blue zone | Rod** | Rod | >100 | > 100 | > 100 | >100 | > 100 | >100 | >100 | > 100 | >100 | > 100 | – | – |
| N#CSCc1ccccc1 [Compound 7, S-benzylithiocyanate, reference compound] | neither a growth inhibitory zone nor blue zone | – | Rod | >100 | > 100 | > 100 | >100 | > 100 | >100 | >100 | > 100 | >100 | > 100 | – | Shape (E. coli MG1655 [3]; E. coli MG1655 treated at 3×MIC (*), 30° C., 16 h): Rod* |
| S=C=NCc1ccccc1 [Compound 8, benzylisothiocyanate, reference compound] | a growth inhibitory zone, but no blue zone developed | Rod** | Rod | – | – | – | – | – | – | – | – | – | – | – | MIC [1, 5]: 12.5 µg/mL (≈ 83.8 µM); MIC [1, 6]: 12.5 µg/mL (≈ 83.8 µM); MIC (E. coli MG1655 [4]; [9]): 50 µg/mL (≈ 335 µM); MIC (E. coli MG1655 [4]; [10]): 50 µg/mL (≈ 335 µM); MIC (B. subtilis 168; [11]): 25 µg/mL (≈ 168 µM); MIC (B. subtilis 168; [12]): 25 µg/mL (≈ 168 µM); MIC (P. putida NBRC14164; [13]): > 100 µg/mL; MIC (P. putida NBRC14164; [14]): > 100 µg/mL; MIC (S. typhimurium NBRC13245; [8]): 100 µg/mL (≈ 670 µM); MIC (S. typhimurium NBRC13245; Table 1, NBRC13245): 100 µg/mL (≈ 670 µM) |
| O=C=NCc1ccccc1 [Compound 9, benzylisocyanate, reference compound] | neither a growth inhibitory zone nor blue zone | Rod** | Rod | >100 | > 100 | > 100 | >100 | > 100 | >100 | >100 | > 100 | >100 | > 100 | – | – |
| NC(=S)Nc1ccccc1 [Compound 10, N-phenylthiourea, reference compound] | neither a growth inhibition nor blue zone | Rod** | Rod | >100 | > 100 | > 100 | >100 | > 100 | >100 | >100 | > 100 | >100 | > 100 | – | – |
| C=C1[C@@H](C)[C@H]2[C@H](Cc3ccccc3)NC(=O)[C@]23[C@H](OC(C)=O)/C=C/[C@@](C)(O)C(=O)[C@@H](C)C/C=C/[C@H]3[C@@H]1O [cytochalasin D] | – | – | – | – | – | – | – | – | – | – | – | – | – | failed to perturb growth rate or morphology | – |
| C/C1=C\[C@H](C)C[C@H](C)OC(=O)C[C@H](c2ccc(O)cc2)NC(=O)[C@@H](Cc2c(Br)[nH]c3ccccc23)N(C)C(=O)[C@H](C)NC(=O)[C@@H](C)C1 [jasplakinolide] | – | – | – | – | – | – | – | – | – | – | – | – | – | failed to perturb growth rate or morphology | – |
| C[C@@H]1NC(=O)[C@H](C[C@@](C)(O)CO)NC(=O)[C@@H]2Cc3c([nH]c4ccccc34)SC[C@H](NC(=O)[C@@H]([C@H](C)O)NC1=O)C(=O)N1C[C@@H](O)C[C@H]1C(=O)N[C@@H](C)C(=O)N2 [phalloidin] (cyclo(A[dT]C[cisHyp]A[Trp(2-yl)][Leu(4R-OH,5-OH)]); thioether 3-6) | – | – | – | – | – | – | – | – | – | – | – | – | – | failed to perturb growth rate or morphology | – |
| latrunculin | – | – | – | – | – | – | – | – | – | – | – | – | – | failed to perturb growth rate or morphology | – |
